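All cell lines were grown in 96-well plates and treated with compound for 48 hours. At the GI50, growth is halved. TGI is the concentration that stops growth completely.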
Experiments:
Experiment in all cases: growth of human tumour cells (NCI), 48 h
KM12 colon = system: KM12 colon
ACHN renal = system: ACHN renal
SK-OV-3 ovarian = system: SK-OV-3 ovarian
OVCAR-5 ovarian = system: OVCAR-5 ovarian
HL-60(TB) leukemia = system: HL-60(TB) leukemia
A498 renal = system: A498 renal
M14 melanoma = system: M14 melanoma
OVCAR-4 ovarian = system: OVCAR-4 ovarian
SN12C renal = system: SN12C renal
SF-539 CNS = system: SF-539 CNS
COLO 205 colon = system: COLO 205 colon
CCRF-CEM leukemia = system: CCRF-CEM leukemia
UACC-257 melanoma = system: UACC-257 melanoma
HCC-2998 colon = system: HCC-2998 colon
HT29 colon = system: HT29 colon
LOX IMVI melanoma = system: LOX IMVI melanoma
OVCAR-8 ovarian = system: OVCAR-8 ovarian
MALME-3M melanoma = system: MALME-3M melanoma
HOP-62 NSCLC = system: HOP-62 NSCLC
HS 578T breast = system: HS 578T breast
MDA-MB-435 = system: MDA-MB-435
U251 CNS = system: U251 CNS
SNB-19 CNS = system: SNB-19 CNS
RPMI-8226 leukemia = system: RPMI-8226 leukemia
NCI/ADR-RES ovarian = system: NCI/ADR-RES ovarian
SK-MEL-28 melanoma = system: SK-MEL-28 melanoma
MDA-MB-468 breast = system: MDA-MB-468 breast
SW-620 colon = system: SW-620 colon
SF-268 CNS = system: SF-268 CNS
EKVX NSCLC = system: EKVX NSCLC
SNB-75 CNS = system: SNB-75 CNS
MCF7 breast = system: MCF7 breast
IGROV1 ovarian = system: IGROV1 ovarian
MOLT-4 leukemia = system: MOLT-4 leukemia
NCI-H23 lung = system: NCI-H23 lung
PC-3 prostate = system: PC-3 prostate
NCI-H522 lung = system: NCI-H522 lung
HCT-15 colon = system: HCT-15 colon
TK-10 renal = system: TK-10 renal
NCI-H226 lung = system: NCI-H226 lung
NCI-H460 lung = system: NCI-H460 lung
SK-MEL-2 melanoma = system: SK-MEL-2 melanoma
SF-295 CNS = system: SF-295 CNS
A549 NSCLC = system: A549 NSCLC
MDA-MB-231 breast = system: MDA-MB-231 breast
K-562 leukemia = system: K-562 leukemia
SK-MEL-5 melanoma = system: SK-MEL-5 melanoma
UO-31 renal = system: UO-31 renal
UACC-62 melanoma = system: UACC-62 melanoma
BT-549 breast = system: BT-549 breast
OVCAR-3 ovarian = system: OVCAR-3 ovarian
RXF 393 renal = system: RXF 393 renal
T-47D breast = system: T-47D breast
SR leukemia = system: SR leukemia
CAKI-1 renal = system: CAKI-1 renal
HOP-92 NSCLC = system: HOP-92 NSCLC
DU-145 prostate = system: DU-145 prostate
786-0 renal = system: 786-0 renal

With CCNCCCn1c2c(c3cc(OC)c(OC)cc3c1=O)C(=O)c1cc3c(nc1-2)OCO3 the GI50 (KM12 colon) was 10.4 µM, the TGI (KM12 colon) was 23.8 µM and the GI50 (ACHN renal) was 0.755 µM. For the same compound, the TGI (ACHN renal) was 7.05 µM, the GI50 (SK-OV-3 ovarian) was 1.14 µM and the TGI (SK-OV-3 ovarian) was 11.8 µM. It also gave a GI50 (OVCAR-5 ovarian) of 3.69 µM, a TGI (OVCAR-5 ovarian) of 16.5 µM and a GI50 (HL-60(TB) leukemia) of 1.63 µM. It also gave a TGI (HL-60(TB) leukemia) of 7.5 µM, a GI50 (A498 renal) of 9.07 µM and a TGI (A498 renal) of 23 µM. It also gave a GI50 (M14 melanoma) of 1.97 µM, a TGI (M14 melanoma) of 12.3 µM and a GI50 (OVCAR-4 ovarian) of 14.2 µM. The TGI (OVCAR-4 ovarian) was 31.9 µM, the GI50 (SN12C renal) was 4.61 µM and the TGI (SN12C renal) was 17.4 µM. It also gave a GI50 (SF-539 CNS) of 0.675 µM, a TGI (SF-539 CNS) of 4.1 µM and a GI50 (COLO 205 colon) of 3.07 µM. It also gave a TGI (COLO 205 colon) of 19.6 µM, a GI50 (CCRF-CEM leukemia) of 0.0351 µM and a TGI (CCRF-CEM leukemia) of 1.23 µM. It also gave a GI50 (UACC-257 melanoma) of 13.4 µM, a TGI (UACC-257 melanoma) of 27.7 µM and a GI50 (HCC-2998 colon) of 4.07 µM. It also gave a TGI (HCC-2998 colon) of 18.9 µM, a GI50 (HT29 colon) of 0.706 µM and a TGI (HT29 colon) of 16.1 µM. The GI50 (LOX IMVI melanoma) was 0.487 µM, the TGI (LOX IMVI melanoma) was 1.9 µM and the GI50 (OVCAR-8 ovarian) was 1.82 µM. It also gave a TGI (OVCAR-8 ovarian) of 12 µM, a GI50 (MALME-3M melanoma) of 1.35 µM and a TGI (MALME-3M melanoma) of 2.76 µM. It also gave a GI50 (HOP-62 NSCLC) of 0.205 µM, a TGI (HOP-62 NSCLC) of 10.2 µM and a GI50 (HS 578T breast) of 10.4 µM. For the same compound, the TGI (HS 578T breast) was 29.8 µM, the GI50 (MDA-MB-435) was 1.38 µM and the TGI (MDA-MB-435) was 2.89 µM. It also gave a GI50 (U251 CNS) of 0.348 µM, a TGI (U251 CNS) of 14.7 µM and a GI50 (SNB-19 CNS) of 1.69 µM. The TGI (SNB-19 CNS) was 17.5 µM, the GI50 (RPMI-8226 leukemia) was 0.641 µM and the TGI (RPMI-8226 leukemia) was 2.97 µM. The GI50 (NCI/ADR-RES ovarian) was 1.56 µM, the TGI (NCI/ADR-RES ovarian) was 4.14 µM and the GI50 (SK-MEL-28 melanoma) was 2.56 µM. For the same compound, the TGI (SK-MEL-28 melanoma) was 8.53 µM, the GI50 (MDA-MB-468 breast) was 0.431 µM and the TGI (MDA-MB-468 breast) was 2.51 µM. It also gave a GI50 (SW-620 colon) of 0.631 µM, a TGI (SW-620 colon) of 20.1 µM and a GI50 (SF-268 CNS) of 0.85 µM. The TGI (SF-268 CNS) was 16.8 µM, the GI50 (EKVX NSCLC) was 5.26 µM and the TGI (EKVX NSCLC) was 20 µM. The GI50 (SNB-75 CNS) was 0.495 µM, the TGI (SNB-75 CNS) was 9.41 µM and the GI50 (MCF7 breast) was 0.0754 µM. For the same compound, the TGI (MCF7 breast) was 10.3 µM, the GI50 (IGROV1 ovarian) was 12.1 µM and the TGI (IGROV1 ovarian) was 25.7 µM. It also gave a GI50 (MOLT-4 leukemia) of 0.048 µM, a TGI (MOLT-4 leukemia) of 2.13 µM and a GI50 (NCI-H23 lung) of 0.324 µM. The TGI (NCI-H23 lung) was 3.76 µM, the GI50 (PC-3 prostate) was 1.28 µM and the TGI (PC-3 prostate) was 18.9 µM. The GI50 (NCI-H522 lung) was 0.442 µM, the TGI (NCI-H522 lung) was 23 µM and the GI50 (HCT-15 colon) was 1.14 µM. It also gave a TGI (HCT-15 colon) of 2.54 µM, a GI50 (TK-10 renal) of 17.6 µM and a TGI (TK-10 renal) of 33.3 µM. For the same compound, the GI50 (NCI-H226 lung) was 1.27 µM, the TGI (NCI-H226 lung) was 3.2 µM and the GI50 (NCI-H460 lung) was 0.239 µM. The TGI (NCI-H460 lung) was 1.39 µM, the GI50 (SK-MEL-2 melanoma) was > 100 µM and the TGI (SK-MEL-2 melanoma) was > 100 µM. For the same compound, the GI50 (SF-295 CNS) was 0.23 µM, the TGI (SF-295 CNS) was 12.7 µM and the GI50 (A549 NSCLC) was 1.22 µM. The TGI (A549 NSCLC) was 18.4 µM, the GI50 (MDA-MB-231 breast) was 1.91 µM and the TGI (MDA-MB-231 breast) was 6.14 µM. The GI50 (K-562 leukemia) was 0.483 µM, the TGI (K-562 leukemia) was 2.75 µM and the GI50 (SK-MEL-5 melanoma) was 0.921 µM. It also gave a TGI (SK-MEL-5 melanoma) of 2.14 µM, a GI50 (UO-31 renal) of 3.09 µM and a TGI (UO-31 renal) of 16.3 µM. The GI50 (UACC-62 melanoma) was 1.81 µM, the TGI (UACC-62 melanoma) was 15.4 µM and the GI50 (BT-549 breast) was 6.82 µM. For the same compound, the TGI (BT-549 breast) was 25.1 µM, the GI50 (OVCAR-3 ovarian) was 11.9 µM and the TGI (OVCAR-3 ovarian) was 24.7 µM. For the same compound, the GI50 (RXF 393 renal) was 1.35 µM, the TGI (RXF 393 renal) was 5.66 µM and the GI50 (T-47D breast) was 1.06 µM. For the same compound, the TGI (T-47D breast) was 13.9 µM, the GI50 (SR leukemia) was 0.307 µM and the TGI (SR leukemia) was 2.39 µM. It also gave a GI50 (CAKI-1 renal) of 0.946 µM, a TGI (CAKI-1 renal) of 16.6 µM and a GI50 (HOP-92 NSCLC) of 7.73 µM. For the same compound, the TGI (HOP-92 NSCLC) was 23.1 µM, the GI50 (DU-145 prostate) was 0.548 µM and the TGI (DU-145 prostate) was 12.5 µM. The GI50 (786-0 renal) was 1.39 µM and the TGI (786-0 renal) was 2.84 µM.

From PubChem BioAssay (NCI)
